Reference: patent US5747536A, “Pharmaceutical composition comprising L-carnitine or derivative thereof and trihydroxy or tetrahydroxystilbene” (Sigma-Tau Industrie Farmaceutiche Riunite S.p.A., priority 1995, dated 1998)

Experiments:
[1] = Kimura et al. 1983; cited from earlier work
[2] = tested on: cyclo-oxygeNases; details: Kimura et al. 1985; cited from earlier work
[3] = tested on: platelet-rich plasma (PRP); assay: Platelet aggregation induced by collagen in platelet-rich plasma, photometric (Born); assay type: cell-based, human (volunteers); details: collagen 2.5 ng/ml, 10 minutes of incubation
Protocol: Platelet-rich plasma (PRP) was obtained from the blood of volunteers by centrifuging the plasma at 145 x g for 5 min at 22° C. The number of platelets was determined using a CA 580A (Delcon) Platelet Counter. The number of platelets was brought down to a fixed value of […] by adding platelet-poor plasma (PPP). PPP was obtained by centrifuging blood at 1600 x g for 10 min at 22° C.
Platelet aggregation was determined photometrically (Born G.V.R., Nature 194, 927, 1962) using an Elvi 840 aggregometer in plastic test tubes under continual stirring at 1000 rpm. The maximum light transmission (100%) was measured with PPP readings, whereas 0% transmission was measured with PRP readings.
The degree of aggregation of PRP induced by the aggregating agent (collagen at 2.5 to 5 ng/ml) was calculated as a percentage of maximum transmission of light obtained with PPP using […] PRP samples.
Aggregation was measured in basal conditions and after 10 minutes of incubation with L-carnitine, resveratrol, grape extract, and combinations of these preparations.

[4] = tested on: atherosclerotic vascular lesions (aorta); assay: Experimental atherosclerosis induced by atherogenic diet (Malinow method); assay type: in vivo; details: atherogenic diet for 6 consecutive weeks; male Wistar rats
[5] = tested on: platelet aggregation induced by collagen or ADP; details: Fitzpatrick et al. 1993; cited from earlier work
[6] = tested on: lipo-oxygenases; details: Kimura et al. 1985; cited from earlier work
[7] = tested on: production of thromboxanes and leukotrienes; synthesis of eicosanoids; details: cited from earlier work
[8] = tested on: formation of nitroxides; details: Fitzpatrick et al. 1993; cited from earlier work

Compound | antihyperoxidative ability (in words) [1] | inhibition of cyclo-oxygenases (in words) [2] | IC50 ([3]; Homo sapiens, Platelet, 10 min, read-out: ED50, inhibition of the platelet aggregation induced by collagen) [ng/mL] | atherosclerotic vascular lesions (in words) [4] | inhibition of platelet aggregation induced by collagen or ADP (in words) [5] | inhibition of lipo-oxygenases (in words) [6] | production of thromboxanes and leukotrienes (in words) ([7]; Kimura et al. 1985) | synthesis of eicosanoids (in words) ([7]; background statement) | formation of nitroxides with a vasodilatory action (in words) [8] | effect on platelet aggregation (in words) [3]
Oc1ccc(C=Cc2cc(O)cc(O)c2)cc1 [resveratrol, 3,4',5-trihydroxystilbene] | antihyperoxidative ability | inhibit | 3.5 | reduced | inhibiting platelet aggregation induced by collagen or ADP | inhibit | reduction in the production of thromboxanes and leukotrienes | ability to modulate the synthesis of eicosanoids | promoting the formation of nitroxides with a vasodilatory action | 
C[N+](C)(C)C[C@H](O)CC(=O)[O-] [carnitine, L-carnitine] |  |  |  | reduced |  |  |  |  |  | no significant change
